Assay results as given in patent US20250236616A1, “IMMUNOMODULATING AZALIDES” (Zoetis Services LLC, priority 2021, published 2025).

Experiments:
Assay type in all cases: cell-based
IL-6 = assay: Whole bovine blood assay, LPS-induced IL-6; details: fresh whole bovine blood, LPS stimulant; top drug concentration 250 μM
IL-1β = assay: Whole bovine blood assay, LPS-induced IL-1β (inhibition / overstimulation); details: drug concentration giving overstimulation (OS) of LPS-induced IL-1β, top concentration 250 μM
How it was run: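 Fresh heparinized bovine whole blood was preincubated with compound at varying concentrations for 4 h at 37 °C, then stimulated with 1 μg/mL LPS for 18 h. Plasma IL-1β was measured by MSD chemiluminescent immunoassay and normalized to total protein. Values cover inhibition and concentration-dependent overstimulation.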

TNF-α = assay: Whole bovine blood assay, LPS-induced TNF-α; details: fresh whole bovine blood, LPS stimulant; top drug concentration 250 μM
How it was run: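 Fresh heparinized bovine whole blood was preincubated with compound 4 h at 37 °C, then stimulated with LPS (final 1 μg/mL) for 18 h at 37 °C. Plasma TNF-α was quantified by MSD U-Plex chemiluminescent immunoassay, normalized to total protein (BCA), and IC50 taken for LPS-induced TNF-α inhibition.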

| SMILES | IC50 (IL-6) | minimal effective concentration (IL-1β) | IC50 (TNF-α) |
| --- | --- | --- | --- |
| CCCNC[C@]1(O)[C@H](C)O[C@@H](O[C@H]2[C@H](C)[C@@H](O[C@@H]3O[C@H](C)C[C@H](N(C)S(=O)(=O)c4ccccc4)[C@H]3Oc3ccc(F)cc3)[C@](C)(O)C[C@@H](C)CN[C@H](C)[C@@H](O)[C@](C)(O)[C@@H](CC)OC(=O)[C@@H]2C)C[C@@]1(C)OC [Example B-109] | 10 µM | 3 µM | 9 µM |
| CCCNC[C@]1(O)[C@H](C)O[C@@H](O[C@H]2[C@H](C)[C@@H](O[C@@H]3O[C@H](C)C[C@H](N(C)S(=O)(=O)c4nccn4C)[C@H]3Oc3c(C)cccc3F)[C@](C)(O)C[C@@H](C)CN[C@H](C)[C@@H](O)[C@](C)(O)[C@@H](CC)OC(=O)[C@@H]2C)C[C@@]1(C)OC [Example B-110] | 75 µM | 18 µM | 154 µM |
| CCCNC[C@]1(O)[C@H](C)O[C@@H](O[C@H]2[C@H](C)[C@@H](O[C@@H]3O[C@H](C)C[C@H](N(C)S(=O)(=O)c4ncn(C)c4Cl)[C@H]3Oc3ccc(OC)cc3)[C@](C)(O)C[C@@H](C)CN[C@H](C)[C@@H](O)[C@](C)(O)[C@@H](CC)OC(=O)[C@@H]2C)C[C@@]1(C)OC [Example B-111] | 141 µM | 17 µM | > 250 µM |
| CCCNC[C@]1(O)[C@H](C)O[C@@H](O[C@H]2[C@H](C)[C@@H](O[C@@H]3O[C@H](C)C[C@H](N(C)S(=O)(=O)N(C)CC(F)(F)F)[C@H]3O)[C@](C)(O)C[C@@H](C)CN[C@H](C)[C@@H](O)[C@](C)(O)[C@@H](CC)OC(=O)[C@@H]2C)C[C@@]1(C)OC [Example B-112] | 45 µM | 40 µM | 39 µM |
| CC[C@H]1OC(=O)[C@H](C)[C@@H](O[C@H]2C[C@@](C)(OC)[C@](O)(CNc3ccc(OC)cc3)[C@H](C)O2)[C@H](C)[C@@H](O[C@@H]2O[C@H](C)C[C@H](N(C)S(N)(=O)=O)[C@H]2O)[C@](C)(O)C[C@@H](C)CN[C@H](C)[C@@H](O)[C@]1(C)O [Example B-125] | 88 µM | 16 µM | 34 µM |
| CCCNC[C@]1(O)[C@H](C)O[C@@H](O[C@H]2[C@H](C)[C@@H](O[C@@H]3O[C@H](C)C[C@H](N(C)S(=O)(=O)c4nccn4C)[C@H]3Oc3ccccn3)[C@](C)(O)C[C@@H](C)CN[C@H](C)[C@@H](O)[C@](C)(O)[C@@H](CC)OC(=O)[C@@H]2C)C[C@@]1(C)OC [Example B-131] | 17 µM | 6 µM | 28 µM |
| CCCNC[C@]1(O)[C@H](C)O[C@@H](O[C@H]2[C@H](C)[C@@H](O[C@@H]3O[C@H](C)C[C@H](N(C)S(=O)(=O)c4nccn4C)[C@H]3Oc3cccc(CO)c3)[C@](C)(O)C[C@@H](C)CN[C@H](C)[C@@H](O)[C@](C)(O)[C@@H](CC)OC(=O)[C@@H]2C)C[C@@]1(C)OC [Example B-134] | 83 µM | 40 µM | 17 µM |
| CCCNC[C@]1(O)[C@H](C)O[C@@H](O[C@H]2[C@H](C)[C@@H](O[C@@H]3O[C@H](C)C[C@H](N(C)S(=O)(=O)c4nccn4C)[C@H]3Oc3ccc(Cl)cc3)[C@](C)(O)C[C@@H](C)CN[C@H](C)[C@@H](O)[C@](C)(O)[C@@H](CC)OC(=O)[C@@H]2C)C[C@@]1(C)OC [Example B-136] | 9 µM | 6 µM | 8 µM |
| CCCNC[C@]1(O)[C@H](C)O[C@@H](O[C@H]2[C@H](C)[C@@H](O[C@@H]3O[C@H](C)C[C@H](N(C)S(=O)(=O)c4ccccc4)[C@H]3Oc3cccc([S+](C)[O-])c3)[C@](C)(O)C[C@@H](C)CN[C@H](C)[C@@H](O)[C@](C)(O)[C@@H](CC)OC(=O)[C@@H]2C)C[C@@]1(C)OC (stereo partly drawn) [Example B-138] | 70 µM | 40 µM | 26 µM |
| CCCNC[C@]1(O)[C@H](C)O[C@@H](O[C@H]2[C@H](C)[C@@H](O[C@@H]3O[C@H](C)C[C@H](N(C)S(=O)(=O)c4nccn4C)[C@H]3Oc3cccc([S+](C)[O-])c3)[C@](C)(O)C[C@@H](C)CN[C@H](C)[C@@H](O)[C@](C)(O)[C@@H](CC)OC(=O)[C@@H]2C)C[C@@]1(C)OC (stereo partly drawn) [Example B-139] | 73 µM | 40 µM | 40 µM |
| CCCNC[C@]1(O)[C@H](C)O[C@@H](O[C@H]2[C@H](C)[C@@H](O[C@@H]3O[C@H](C)C[C@H](N(Cc4ccccc4)S(=O)(=O)c4nccn4C)[C@H]3O)[C@](C)(O)C[C@@H](C)CN[C@H](C)[C@@H](O)[C@](C)(O)[C@@H](CC)OC(=O)[C@@H]2C)C[C@@]1(C)OC [Example B-143] | 8 µM | 2 µM | 7 µM |
| CCCNC[C@]1(O)[C@H](C)O[C@@H](O[C@H]2[C@H](C)[C@@H](O[C@@H]3O[C@H](C)C[C@H](N(Cc4ccccc4)S(=O)(=O)c4ccc(OC)cc4)[C@H]3O)[C@](C)(O)C[C@@H](C)CN[C@H](C)[C@@H](O)[C@](C)(O)[C@@H](CC)OC(=O)[C@@H]2C)C[C@@]1(C)OC [Example B-144] | 10 µM | 2 µM | 9 µM |
| CCCNC[C@]1(O)[C@H](C)O[C@@H](O[C@H]2[C@H](C)[C@@H](O[C@@H]3O[C@H](C)C[C@H](N(Cc4ccccc4)S(=O)(=O)c4ccccc4)[C@H]3O)[C@](C)(O)C[C@@H](C)CN[C@H](C)[C@@H](O)[C@](C)(O)[C@@H](CC)OC(=O)[C@@H]2C)C[C@@]1(C)OC [Example B-145] | 6 µM | 2 µM | 8 µM |
| CCCNC[C@]1(O)[C@H](C)O[C@@H](O[C@H]2[C@H](C)[C@@H](O[C@@H]3O[C@H](C)C[C@H](N(Cc4ccc(OC)cc4)S(=O)(=O)c4nccn4C)[C@H]3O)[C@](C)(O)C[C@@H](C)CN[C@H](C)[C@@H](O)[C@](C)(O)[C@@H](CC)OC(=O)[C@@H]2C)C[C@@]1(C)OC [Example B-146] | 10 µM | 2 µM | 10 µM |
| CCCNC[C@]1(O)[C@H](C)O[C@@H](O[C@H]2[C@H](C)[C@@H](O[C@@H]3O[C@H](C)C[C@H](N(Cc4ccc(OC)cc4)S(=O)(=O)c4ccc(OC)cc4)[C@H]3O)[C@](C)(O)C[C@@H](C)CN[C@H](C)[C@@H](O)[C@](C)(O)[C@@H](CC)OC(=O)[C@@H]2C)C[C@@]1(C)OC [Example B-147] | 5 µM | 1 µM | 7 µM |
| CC[C@H]1OC(=O)[C@H](C)[C@@H](O[C@H]2C[C@@](C)(OC)[C@](O)(CN3CCCC3)[C@H](C)O2)[C@H](C)[C@@H](O[C@@H]2O[C@H](C)C[C@H](N(C)S(=O)(=O)c3ccc(Cl)cc3)[C@H]2O)[C@](C)(O)C[C@@H](C)CN[C@H](C)[C@@H](O)[C@]1(C)O [Example C-3] | 9 µM | 16 µM | 5 µM |
| CC[C@H]1OC(=O)[C@H](C)[C@@H](O[C@H]2C[C@@](C)(OC)[C@](O)(CN3CCSCC3)[C@H](C)O2)[C@H](C)[C@@H](O[C@@H]2O[C@H](C)C[C@H](N(C)S(=O)(=O)c3ccc(Cl)cc3)[C@H]2O)[C@](C)(O)C[C@@H](C)CN[C@H](C)[C@@H](O)[C@]1(C)O [Example C-6] | 32 µM | 16 µM | 6 µM |
| CC[C@H]1OC(=O)[C@H](C)[C@@H](O[C@H]2C[C@@](C)(OC)[C@](O)(CN3CCN(C)CC3)[C@H](C)O2)[C@H](C)[C@@H](O[C@@H]2O[C@H](C)C[C@H](N(C)S(=O)(=O)c3ccc(Cl)cc3)[C@H]2O)[C@](C)(O)C[C@@H](C)CN[C@H](C)[C@@H](O)[C@]1(C)O [Example C-7] | 50 µM | 6 µM | 66 µM |
| CC[C@H]1OC(=O)[C@H](C)[C@@H](O[C@H]2C[C@@](C)(OC)[C@](O)(Cn3cnnn3)[C@H](C)O2)[C@H](C)[C@@H](O[C@@H]2O[C@H](C)C[C@H](N(C)S(=O)(=O)c3ccc(Cl)cc3)[C@H]2O)[C@](C)(O)C[C@@H](C)CN[C@H](C)[C@@H](O)[C@]1(C)O [Example C-9] | 23 µM | 8 µM | 23 µM |
| CC[C@H]1OC(=O)[C@H](C)[C@@H](O[C@H]2C[C@@](C)(OC)[C@](O)(CN3CCN(CC)CC3)[C@H](C)O2)[C@H](C)[C@@H](O[C@@H]2O[C@H](C)C[C@H](N(C)S(=O)(=O)Nc3ccc(C(F)(F)F)cc3)[C@H]2O)[C@](C)(O)C[C@@H](C)CN[C@H](C)[C@@H](O)[C@]1(C)O [Example C-12] | 140 µM | 100 µM | 13 µM |
| CC[C@H]1OC(=O)[C@H](C)[C@@H](O[C@H]2C[C@@](C)(OC)[C@](O)(CN3CCS(=O)(=O)CC3)[C@H](C)O2)[C@H](C)[C@@H](O[C@@H]2O[C@H](C)C[C@H](N(C)S(=O)(=O)Nc3ccc(C(F)(F)F)cc3)[C@H]2O)[C@](C)(O)C[C@@H](C)CN[C@H](C)[C@@H](O)[C@]1(C)O [Example C-13] | > 250 µM | 6 µM | > 250 µM |
| CC[C@H]1OC(=O)[C@H](C)[C@@H](O[C@H]2C[C@@](C)(OC)[C@](O)(CN3CCN(C(C)C)CC3)[C@H](C)O2)[C@H](C)[C@@H](O[C@@H]2O[C@H](C)C[C@H](N(C)S(=O)(=O)Nc3ccc(C(F)(F)F)cc3)[C@H]2O)[C@](C)(O)C[C@@H](C)CN[C@H](C)[C@@H](O)[C@]1(C)O [Example C-14] | > 250 µM | >250 µM | > 250 µM |
| CC[C@H]1OC(=O)[C@H](C)[C@@H](O[C@H]2C[C@@](C)(OC)[C@](O)(CN3CCN(S(C)(=O)=O)CC3)[C@H](C)O2)[C@H](C)[C@@H](O[C@@H]2O[C@H](C)C[C@H](N(C)S(=O)(=O)Nc3ccc(C(F)(F)F)cc3)[C@H]2O)[C@](C)(O)C[C@@H](C)CN[C@H](C)[C@@H](O)[C@]1(C)O [Example C-15] | 48 µM | 16 µM | 10 µM |
